Data from patent US6525001B1, “Substituted pyrimidine and pyridine herbicides” (Mid-American Commercialization Corporation, priority 1997, dated 2003).

How the values were obtained:
Format in all cases: in vivo
Parameters in all cases: key: 0 is no effect; 10 is complete control
[1] = tested on: bedstraw (Galium aparine); assay: Test B pre-/postemergence; conditions: Postemergence
In short: (§1)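 Response scores run from 0, meaning no effect, to 10, meaning complete control, assigned by eye relative to controls twelve to sixteen days after spraying. Treatment was both preemergence on planted seed and postemergence on plants at the 1- to 4-leaf stage.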

[2] = tested on: blackgrass (Alopecurus myosuroides); assay: Test B pre-/postemergence
In short: as §1

[3] = tested on: broadleaf signalgrass (Brachiaria decumbens); assay: Test B pre-/postemergence
In short: as §1

[4] = tested on: cocklebur (Xanthium strumarium); assay: Test B pre-/postemergence
In short: as §1

corn (Zea mays) = assay: Test B pre-/postemergence
In short: as §1

[5] = tested on: crabgrass (Digitaria sanguinalis); assay: Test B pre-/postemergence
In short: as §1

[6] = tested on: giant foxtail (Setaria faberii); assay: Test B pre-/postemergence
In short: as §1

[7] = tested on: momingglory (Ipomoea hederacea); assay: Test B pre-/postemergence
In short: as §1

[8] = tested on: pigweed (Amaranthus retroflexus); assay: Test B pre-/postemergence
In short: as §1

[9] = tested on: purple nutsedge (Cyperus rotundus); assay: Test B pre-/postemergence; conditions: Rate 62 g/ha
In short: as §1

rape (Brassica napus) = assay: Test B pre-/postemergence
In short: as §1

soybean (Glycine max) = assay: Test B pre-/postemergence
In short: as §1

[10] = tested on: sugar beet (Beta vulgaris); assay: Test B pre-/postemergence
In short: as §1

[11] = tested on: velvetleaf (Abutilon theophrasti); assay: Test B pre-/postemergence
In short: as §1

[12] = tested on: wheat (Triticum aestivum); assay: Test B pre-/postemergence
In short: as §1

wild oat (Avena fatua) = assay: Test B pre-/postemergence
In short: as §1

[13] = tested on: bamyardgrass (Echinochloa crus-galli); assay: Test B flood test
In short: (§2)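 Each value is a visual injury score relative to controls, with 10 meaning complete control and 0 no effect. Evaluation took place twelve to sixteen days after the 2-leaf-stage plants were treated and kept in the greenhouse.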

[14] = tested on: duck salad (Heteranthera limosa); assay: Test B flood test
In short: as §2

rice (Oryza sativa) = assay: Test B flood test
In short: as §2

[15] = tested on: smallflower flatsedge (Cyperus difformis); assay: Test B flood test
In short: as §2

[16] = Preemergence, Rate 62 g/ha, scale of 0 to 10
[17] = Rate 62 g/ha, Postemergence (flood test)
[18] = Rate 125 g/ha, Postemergence section (flood test species)
[19] = Rate 250 g/ha, Postemergence (flood test species)

O=C(c1cccc(C(F)(F)F)c1)c1ccnc(-c2ccc(C(F)(F)F)cc2)n1 [Compound 77]
4: Plant response rating, Bedstraw ([1]; Rate 250 g/ha) | Morningglory plant response rating ([7]; Rate 125 g/ha, Postemergence) | Plant response rating, Morningglory ([7]; Rate 250 g/ha, Postemergence)
1: Bedstraw plant response rating ([1]; Rate 62 g/ha) | Bedstraw plant response rating ([1]; Rate 125 g/ha) | Plant response rating, B. signalgrass ([3]; Rate 250 g/ha, Postemergence) | Cocklebur plant response rating ([4]; Rate 62 g/ha, Postemergence) | Corn plant response rating (corn (Zea mays); Rate 62 g/ha, Postemergence) | Corn plant response rating (corn (Zea mays); Rate 125 g/ha, Postemergence) | Plant response rating, Corn (corn (Zea mays); Rate 250 g/ha, Postemergence) | Plant response rating, Crabgrass ([5]; Rate 250 g/ha, Preemergence) | Giant foxtail plant response rating ([6]; Rate 125 g/ha, Postemergence) | Plant response rating, Giant foxtail ([6]; Rate 250 g/ha, Postemergence) | Plant response rating, Giant foxtail ([6]; Rate 250 g/ha, Preemergence) | Plant response rating, Morningglory ([7]; Rate 250 g/ha, Preemergence) | Rape plant response rating (rape (Brassica napus); Rate 62 g/ha, Postemergence) | Rape plant response rating (rape (Brassica napus); Rate 125 g/ha, Postemergence) | Soybean plant response rating (soybean (Glycine max); Rate 125 g/ha, Postemergence) | Plant response rating, Soybean (soybean (Glycine max); Rate 250 g/ha, Postemergence) | Sugarbeets plant response rating ([10]; Rate 62 g/ha, Postemergence) | Sugarbeets plant response rating ([10]; Rate 125 g/ha, Postemergence) | Velvetleaf plant response rating ([11]; Rate 62 g/ha, Postemergence) | Velvetleaf plant response rating ([11]; Rate 125 g/ha, Postemergence) | Plant response rating, Velvetleaf ([11]; Rate 250 g/ha, Postemergence) | Plant response rating, Wild oats (wild oat (Avena fatua); Rate 250 g/ha, Postemergence)
2: Plant response rating, Blackgrass ([2]; Rate 250 g/ha, Postemergence) | Crabgrass plant response rating ([5]; Rate 125 g/ha, Postemergence) | Plant response rating, Crabgrass ([5]; Rate 250 g/ha, Postemergence) | Morningglory plant response rating ([7]; Rate 62 g/ha, Postemergence) | Redroot pigweed plant response rating ([8]; Rate 62 g/ha, Postemergence) | Redroot pigweed plant response rating ([8]; Rate 125 g/ha, Postemergence) | Plant response rating, Rape (rape (Brassica napus); Rate 250 g/ha, Postemergence)
3: Cocklebur plant response rating ([4]; Rate 125 g/ha, Postemergence) | Plant response rating, Cocklebur ([4]; Rate 250 g/ha, Postemergence) | Plant response rating, Redroot pigweed ([8]; Rate 250 g/ha, Postemergence) | Plant response rating, Sugarbeets ([10]; Rate 250 g/ha, Postemergence) | Plant response rating, Velvetleaf ([11]; Rate 250 g/ha, Preemergence)
0: Plant response rating, Blackgrass [2, 16] | Blackgrass plant response rating ([2]; Rate 62 g/ha, Postemergence) | Blackgrass plant response rating ([2]; Rate 125 g/ha, Postemergence) | Plant response rating, Blackgrass ([2]; Rate 125 g/ha, Preemergence) | Plant response rating, Blackgrass ([2]; Rate 250 g/ha, Preemergence) | B. signalgrass plant response rating ([3]; Rate 62 g/ha, Postemergence) | B. signalgrass plant response rating ([3]; Rate 62 g/ha, Preemergence) | B. signalgrass plant response rating ([3]; Rate 125 g/ha, Postemergence) | Plant response rating, B. signalgrass ([3]; Rate 125 g/ha, Preemergence) | Plant response rating, B. signalgrass ([3]; Rate 250 g/ha, Preemergence) | Plant response rating, Cocklebur [4, 16] | Plant response rating, Cocklebur ([4]; Rate 125 g/ha, Preemergence) | Plant response rating, Cocklebur ([4]; Rate 250 g/ha, Preemergence) | Plant response rating, Corn (corn (Zea mays); [16]) | Plant response rating, Corn (corn (Zea mays); Rate 125 g/ha, Preemergence) | Plant response rating, Corn (corn (Zea mays); Rate 250 g/ha, Preemergence) | Plant response rating, Crabgrass [5, 16] | Crabgrass plant response rating ([5]; Rate 62 g/ha, Postemergence) | Plant response rating, Crabgrass ([5]; Rate 125 g/ha, Preemergence) | Plant response rating, Giant foxtail [6, 16] | Giant foxtail plant response rating ([6]; Rate 62 g/ha, Postemergence) | Plant response rating, Giant foxtail ([6]; Rate 125 g/ha, Preemergence) | Plant response rating, Morningglory [7, 16] | Plant response rating, Morningglory ([7]; Rate 125 g/ha, Preemergence) | Plant response rating, Redroot pigweed [8, 16] | Plant response rating, Redroot pigweed ([8]; Rate 125 g/ha, Preemergence) | Plant response rating, Redroot pigweed ([8]; Rate 250 g/ha, Preemergence) | Plant response rating, Nutsedge ([9]; Preemergence, scale of 0 to 10) | Nutsedge plant response rating ([9]; Postemergence) | Plant response rating, Rape (rape (Brassica napus); [16]) | Plant response rating, Rape (rape (Brassica napus); Rate 125 g/ha, Preemergence) | Plant response rating, Rape (rape (Brassica napus); Rate 250 g/ha, Preemergence) | Plant response rating, Soybean (soybean (Glycine max); [16]) | Soybean plant response rating (soybean (Glycine max); Rate 62 g/ha, Postemergence) | Plant response rating, Soybean (soybean (Glycine max); Rate 125 g/ha, Preemergence) | Plant response rating, Soybean (soybean (Glycine max); Rate 250 g/ha, Preemergence) | Plant response rating, Sugarbeets [10, 16] | Plant response rating, Sugarbeets ([10]; Rate 125 g/ha, Preemergence) | Plant response rating, Sugarbeets ([10]; Rate 250 g/ha, Preemergence) | Plant response rating, Velvetleaf [11, 16] | Plant response rating, Velvetleaf ([11]; Rate 125 g/ha, Preemergence) | Plant response rating, Wheat [12, 16] | Wheat plant response rating ([12]; Rate 62 g/ha, Postemergence) | Wheat plant response rating ([12]; Rate 125 g/ha, Postemergence) | Plant response rating, Wheat ([12]; Rate 125 g/ha, Preemergence) | Plant response rating, Wheat ([12]; Rate 250 g/ha, Postemergence) | Plant response rating, Wheat ([12]; Rate 250 g/ha, Preemergence) | Plant response rating, Wild oats (wild oat (Avena fatua); [16]) | Wild oats plant response rating (wild oat (Avena fatua); Rate 62 g/ha, Postemergence) | Wild oats plant response rating (wild oat (Avena fatua); Rate 125 g/ha, Postemergence) | Plant response rating, Wild oats (wild oat (Avena fatua); Rate 125 g/ha, Preemergence) | Plant response rating, Wild oats (wild oat (Avena fatua); Rate 250 g/ha, Preemergence) | Barnyardgrass plant response rating [13, 17] | Barnyardgrass plant response rating [13, 18] | Plant response rating, Barnyardgrass [13, 19] | Ducksalad plant response rating [14, 17] | Ducksalad plant response rating [14, 18] | Plant response rating, Ducksalad [14, 19] | Rice plant response rating (rice (Oryza sativa); [17]) | Rice plant response rating (rice (Oryza sativa); [18]) | Plant response rating, Rice (rice (Oryza sativa); [19]) | S. Flatsedge plant response rating [15, 17] | S. Flatsedge plant response rating [15, 18] | Plant response rating, S. Flatsedge [15, 19]
